Data as given in the NIST ThermoML archive (doi:10.1021/acs.jced.6b00856).
Numbers after ± are expanded uncertainties.

Test: mn = molality of the nth substance listed, in mol/kg
Settings: 101.3 kPa, Liquid; for viscosity: Capillary tube (Ostwald / Ubbelohde) method; for mass density: Pycnometric method

C1CNCCN1 [piperazine] + O
Settings	mass density, 303.15 K [kg/m3]	mass density, 313.15 K [kg/m3]	mass density, 323.15 K [kg/m3]	viscosity, 303.15 K [mPa·s]	viscosity, 313.15 K [mPa·s]	viscosity, 323.15 K [mPa·s]
m1 = 0.66	997.55 ± 0.27	994.45 ± 0.29	989.89 ± 0.31	0.987 ± 0.04	0.789 ± 0.039	0.641 ± 0.039
m1 = 1.1	999.58 ± 0.27	995.73 ± 0.29	991.34 ± 0.31	1.169 ± 0.04	0.916 ± 0.04	0.747 ± 0.039
m1 = 1.7	1002.4 ± 0.3	998.08 ± 0.3	993.64 ± 0.32	1.456 ± 0.04	1.124 ± 0.04	0.893 ± 0.039
